Values joined by “and” are separate entries in the source; they are usually repeats but may differ in a detail not shown here. Equal values may be shown once.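 The compound was tested at five concentrations on cells cultured in 96-well plates, with a 48-hour exposure period. At the GI50, growth is halved. Definition used: TGI = concentration required for complete inhibition of growth.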 Where a SMILES comes first, the peptide text is derived from it. [ ]: non-standard residue; d: D form. The star is where a group is joined. ξ: configuration not given here. X16 = COC1=CC(=O)N(C(=O)C(O*)C(C)C)C1Cc1ccccc1; ξNMe2Val = CC(C)C(C(=O)*)N(C)C; NMeV = CN[CH](C(=O)O)C(C)C
What was measured:
Assay in all cases: NCI tumour cell line growth inhibition, 48 h
DMS 114 small cell lung = tested on: DMS 114 small cell lung
DMS 273 small cell lung = tested on: DMS 273 small cell lung
HOP-18 NSCLC = tested on: HOP-18 NSCLC
KM20L2 colon = tested on: KM20L2 colon
LXFL 529 NSCLC = tested on: LXFL 529 NSCLC
RXF-631 renal = tested on: RXF-631 renal
XF 498 CNS = tested on: XF 498 CNS
M19-MEL melanoma = tested on: M19-MEL melanoma
P388/ADR leukemia = tested on: P388/ADR leukemia
SN12K1 renal = tested on: SN12K1 renal
SNB-78 CNS = tested on: SNB-78 CNS
P388 leukemia = tested on: P388 leukemia

SMILES	TGI (DMS 114 small cell lung)	TGI (DMS 273 small cell lung)	TGI (HOP-18 NSCLC)	TGI (KM20L2 colon)	TGI (LXFL 529 NSCLC)	TGI (RXF-631 renal)	TGI (XF 498 CNS)	GI50 (DMS 114 small cell lung)	GI50 (DMS 273 small cell lung)	GI50 (HOP-18 NSCLC)	GI50 (KM20L2 colon)	GI50 (M19-MEL melanoma)	TGI (M19-MEL melanoma)	TGI (P388/ADR leukemia)	TGI (SN12K1 renal)	GI50 (SNB-78 CNS)	TGI (SNB-78 CNS)	GI50 (XF 498 CNS)	TGI (P388 leukemia)
OCC(O)COc1ccc(Br)cc1 (stereo not drawn)	> 100 µM	> 100 µM	> 100 µM	> 100 µM	> 100 µM	> 100 µM	> 100 µM	–	–	–	–	–	–	–	–	–	–	–	–
COC1=CC(=O)N(C(=O)C(OC(=O)C2CCCN2C(=O)C2CCCN2C(=O)C(C(C)C)N(C)C(=O)C(NC(=O)C(C(C)C)N(C)C)C(C)C)C(C)C)C1Cc1ccccc1 (stereo not drawn) (ξNMe2Val-V[NMeV]PP-X16; configuration not given here)	0.00601 µM and 0.00714 µM	< 0.0004 µM	> 4 µM	–	–	–	–	< 0.0004 µM	< 0.0004 µM	> 4 µM	< 0.0004 µM	< 0.0004 µM	> 4 µM	0.556 µM	0.000527 µM	< 0.0004 µM	0.811 µM	< 0.0004 µM	–
COC1/C=C\C=C(/C)C(=O)NC2=CC(=O)C(NCCCl)=C(CC(C)CC(OC)C(O)C(C)/C=C(/C)C1OC(N)=O)C2=O (stereo not drawn)	1.6 µM	1.1 µM	1.72 µM	0.385 µM	13.9 µM	–	8.85 µM	–	–	–	–	–	1.57 µM	–	–	–	19.2 µM	–	–
Oc1c(Cl)c2nccnc2c2ccccc12	> 100 µM	> 100 µM	> 100 µM	> 100 µM	> 100 µM	–	> 100 µM	–	–	–	–	–	> 100 µM	–	–	–	> 100 µM	–	–
C=C1CC2CC[C@@]34C[C@@H]5O[C@@H]6C(O[C@H]7CC[C@H](CC(=O)OC8[C@@H](C)C9OC%10C[C@]%11(C[C@@H]%12O[C@@]%13(C[C@@H](C)[C@@H]%12O%11)C[C@H](C)[C@@H]%11OC%12CC(C(O)CO)OC%12C[C@@H]%11O%13)OC%10CC9O[C@H]8C[C@H]8O[C@@H](CC[C@@H]1O2)C[C@@H](C)C8=C)O[C@@H]7[C@@H]6O3)C5O4 (stereo partly drawn)	0.00428 µM and 0.0198 µM	< 0.000148 µM	> 1.48 µM	–	–	0.0034 µM	–	–	< 0.000148 µM	–	< 0.000148 µM	–	–	0.13 µM	0.0162 µM	< 0.000148 µM	1.32 µM	< 0.000148 µM	0.0156 µM
c1ccc2[nH]c(-c3nc4ccccc4o3)nc2c1	> 100 µM	> 100 µM	–	> 100 µM	> 100 µM	–	> 100 µM	–	–	–	–	–	> 100 µM	–	–	–	> 100 µM	–	–
Cc1ccc(OP2(=O)Oc3ccc4ccccc4c3CN2c2ccc(Cl)cc2)cc1C (stereo not drawn)	> 100 µM	> 100 µM	> 100 µM	> 100 µM	–	–	> 100 µM	–	–	–	–	–	> 100 µM	> 100 µM	> 100 µM	–	> 100 µM	–	> 100 µM
Nc1cc2c(cc1[N+](=O)[O-])[nH]c1c(-c3ccccc3)nccc12	35.7 µM	48.9 µM	50.8 µM	> 82.8 µM	–	–	> 100 µM	–	–	–	–	–	42.7 µM	44.5 µM	67.7 µM	–	> 58.2 µM	–	41 µM
On1c(-c2ccccc2)c(-c2c(-c3ccccc3)n(O)c3ccccc23)c2ccccc21	66 µM	> 100 µM	86.3 µM	–	20 µM	–	71 µM	–	–	–	–	–	> 100 µM	–	–	–	> 100 µM	–	–
O=c1[nH]cnc2c1nnn2CCCn1nnc2c(=O)[nH]cnc21	> 100 µM	> 100 µM	> 100 µM	> 100 µM	> 100 µM	–	> 100 µM	–	–	–	–	–	> 100 µM	–	–	–	> 100 µM	–	–
c1cnc2c(c1)-n1cccc1C1(CCOCC1)NN2	> 100 µM	> 100 µM	> 100 µM	> 100 µM	> 100 µM	–	> 100 µM	–	–	–	–	–	> 100 µM	–	–	–	–	–	–
O=C(NCCNCCO)N/N=C/c1cccc([N+](=O)[O-])c1	> 100 µM	> 100 µM	> 100 µM	> 100 µM	> 100 µM	–	–	–	–	–	–	–	> 100 µM	–	–	–	> 100 µM	–	–
CC1=C/C(=C(\c2ccc(N(C)C)cc2)c2ccc([N+](C)(C)C)cc2)C=CC1=[N+](C)C	16.1 µM	18.2 µM	–	32.8 µM	22.1 µM	21.4 µM	10.1 µM	–	–	–	–	–	20.3 µM	–	–	–	53.5 µM	–	–
C=C/C(C)=C/[C@H](C)C(=O)C[C@H](O)CC1CC(=O)NC(=O)C1	> 100 µM	> 100 µM	> 93.6 µM	> 100 µM	–	–	9.91 µM	–	–	–	–	–	> 100 µM	> 100 µM	> 100 µM	–	> 100 µM	–	> 100 µM

Source: PubChem BioAssay (NCI)
